From patent publication US8598118B2, “Hepatocyte growth factor mimics as therapeutic agents” (Washington State University, priority 2011, dated 2013) come the findings set out here.

Several values for one entry are separate records, joined by “and”; a condition that tells them apart may be missing. Equal entries are not always repeated.

In one test the test system is hippocampal neurons. The test can be described thus: Spinogenesis in mRFP-β-actin transfected dissociated hippocampal neurons. It is filed as cell-based, rat. As to conditions: 5 days. Here is the method:
(§1) Hippocampal neurons (2×10^5 cells per square cm) were cultured from P1 Sprague Dawley rats on plates coated with poly-L-lysine from Sigma (St. Louis, Mo.; molecular weight 300,000). Hippocampal neurons were maintained in Neurobasal A media from Invitrogen (Carlsbad, Calif.) supplemented with B27 from Invitrogen, 0.5 mM L-glutamine, and […] cytosine-D-arabinofuranoside from Sigma added at 2 days in vitro. Hippocampal neurons were then cultured a further 3-7 days, at which time they were either transfected or treated with various pharmacological reagents as described in (Wayman, Davare et al. 2008).
(§2) Neurons were transfected with mRFP-β-actin on day in vitro 6 (DIV6) using LipofectAMINE™ 2000 (Invitrogen) according to the manufacturer's protocol. This protocol yielded the desired 3-5% transfection efficiency thus enabling the visualization of individual neurons. Higher efficiencies obscured the dendritic arbor of individual neurons. Expression of fluorescently tagged actin allowed clear visualization of dendritic spines, as dendritic spines are enriched in actin. On DIV7 the cells were treated with vehicle (H20) or peptides (as described in the text) added to media. On DIV 12 the neurons were fixed (4% paraformaldehyde, 3% sucrose, 60 mM PIPES, 25 mM HEPES, 5 mM EGTA, 1 mM MgCl2, pH 7.4) for 20 min at room temperature and mounted. Slides were dried for at least 20 hours at 4° C. and fluorescent images were obtained with Slidebook 4.2 Digital Microscopy Software driving an Olympus IX81 inverted confocal microscope with a 60× oil immersion lens, NA 1.4 and resolution 0.280 μm Dendritic spine density was measured on primary and secondary dendrites at a distance of at least 150 μm from the soma. Five 50 μm long segments of dendrite from at least 10 neurons per data point were analyzed for each data point reported. Each experiment was repeated at least three times using independent culture preparations. Dendrite length was determined using the National Institutes of Health's Image J 1.41o program (NIH, Bethesda, Md.) and the neurite tracing program Neuron J (Meijering, Jacob et al. 2004) Spines were manually counted.
as §1, with “centimeter)” for “cm)”, “P1-2” for “P1”, “the text or figure legends.” for “(Wayman, Davare et al. 2008).”

A further test concerns the target T1, c-Met receptor (Rattus norvegicus, UniProt P97523).
T1 construct: Dissociated hippocampal neurons were transfected with mRFP-β-actin and shMet RNA; endogenous in cells; host or cells: dissociated hippocampal neurons from P1-2 Sprague Dawley rats
The test can be described thus: Effect of c-Met knock-down (shMet) on spinogenesis in hippocampal neurons. The test is classed as cell-based. As to conditions: HGF 10 ng/ml, 48 hours.
Source text: as §2
A target sequence for c-Met was designed using RNAi central design program (see the website located at cancan.cshl.edu/). […]. The shRNA was transfected into cells using the lipofectamine method described above. Verification of receptor knockdown was done by creating a c-Met-6-Myc tagged gene product using the Gateway cloning system (Invitrogen). […]

T1 sequence (P17945 33-495 partner limits assumed): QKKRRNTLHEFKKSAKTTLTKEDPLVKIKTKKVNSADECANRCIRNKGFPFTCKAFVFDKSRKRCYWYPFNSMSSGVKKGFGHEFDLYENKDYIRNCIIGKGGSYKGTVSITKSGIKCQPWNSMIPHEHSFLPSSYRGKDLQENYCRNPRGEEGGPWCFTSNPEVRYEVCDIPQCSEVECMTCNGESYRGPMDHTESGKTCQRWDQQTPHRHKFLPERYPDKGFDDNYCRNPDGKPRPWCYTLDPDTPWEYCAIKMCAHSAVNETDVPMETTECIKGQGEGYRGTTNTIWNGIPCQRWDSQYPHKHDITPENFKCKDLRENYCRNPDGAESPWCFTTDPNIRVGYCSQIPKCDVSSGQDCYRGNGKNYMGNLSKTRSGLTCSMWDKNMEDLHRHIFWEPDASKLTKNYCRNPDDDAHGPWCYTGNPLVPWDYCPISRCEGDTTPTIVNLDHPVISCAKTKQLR
T1 sequence (P17945 496-728 partner limits assumed): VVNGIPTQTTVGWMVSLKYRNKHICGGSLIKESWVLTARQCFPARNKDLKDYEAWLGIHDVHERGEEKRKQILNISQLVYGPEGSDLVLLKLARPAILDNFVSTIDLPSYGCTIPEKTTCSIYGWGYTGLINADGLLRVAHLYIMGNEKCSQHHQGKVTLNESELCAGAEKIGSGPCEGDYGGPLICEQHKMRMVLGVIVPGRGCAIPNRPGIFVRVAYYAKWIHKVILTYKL
T1 sequence (P97523 25-1382): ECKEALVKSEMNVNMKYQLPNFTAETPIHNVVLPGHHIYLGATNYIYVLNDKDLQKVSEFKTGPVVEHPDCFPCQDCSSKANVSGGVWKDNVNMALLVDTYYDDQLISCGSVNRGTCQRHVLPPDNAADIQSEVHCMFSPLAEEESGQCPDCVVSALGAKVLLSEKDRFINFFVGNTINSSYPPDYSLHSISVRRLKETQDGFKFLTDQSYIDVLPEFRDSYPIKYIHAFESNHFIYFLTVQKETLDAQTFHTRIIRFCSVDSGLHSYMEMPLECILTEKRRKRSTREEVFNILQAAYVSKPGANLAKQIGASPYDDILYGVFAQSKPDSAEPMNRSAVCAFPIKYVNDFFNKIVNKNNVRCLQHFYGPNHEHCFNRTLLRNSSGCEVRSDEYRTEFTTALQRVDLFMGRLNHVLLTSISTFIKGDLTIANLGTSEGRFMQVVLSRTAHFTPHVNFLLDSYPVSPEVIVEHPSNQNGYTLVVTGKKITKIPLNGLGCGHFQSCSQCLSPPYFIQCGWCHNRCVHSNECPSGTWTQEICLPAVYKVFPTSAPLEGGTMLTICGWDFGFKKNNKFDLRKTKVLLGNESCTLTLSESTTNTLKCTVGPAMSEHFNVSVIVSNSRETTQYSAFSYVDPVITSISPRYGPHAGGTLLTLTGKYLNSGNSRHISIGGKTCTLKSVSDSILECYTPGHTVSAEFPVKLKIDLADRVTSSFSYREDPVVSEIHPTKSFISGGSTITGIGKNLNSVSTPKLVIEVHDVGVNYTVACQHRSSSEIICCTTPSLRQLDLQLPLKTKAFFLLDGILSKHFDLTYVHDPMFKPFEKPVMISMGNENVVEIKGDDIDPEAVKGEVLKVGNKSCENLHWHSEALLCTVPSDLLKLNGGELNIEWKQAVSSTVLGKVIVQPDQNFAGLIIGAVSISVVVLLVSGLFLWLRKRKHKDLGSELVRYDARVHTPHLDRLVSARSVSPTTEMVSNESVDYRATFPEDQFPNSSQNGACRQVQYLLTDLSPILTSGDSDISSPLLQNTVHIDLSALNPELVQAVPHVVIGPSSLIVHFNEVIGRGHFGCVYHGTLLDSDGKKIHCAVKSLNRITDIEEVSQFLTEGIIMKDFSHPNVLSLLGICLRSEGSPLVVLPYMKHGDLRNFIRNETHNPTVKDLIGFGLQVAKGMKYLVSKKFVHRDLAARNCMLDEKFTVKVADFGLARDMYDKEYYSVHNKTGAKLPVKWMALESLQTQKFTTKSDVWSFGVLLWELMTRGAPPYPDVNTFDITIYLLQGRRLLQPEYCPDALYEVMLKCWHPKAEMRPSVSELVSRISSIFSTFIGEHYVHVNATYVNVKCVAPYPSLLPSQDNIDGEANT

In the case of “HGF: carrier free adult recombinant Hepatocyte Growth Factor (R and D Systems)”, the mean spine numbers in the test on hippocampal neurons (HGF 2.5 ng/ml) is 18.6 and 16.5; in the test with hippocampal neurons (HGF 5 ng/ml) it was 24.7; in the test with hippocampal neurons (HGF 20 ng/ml), 27.0. Further, the “mean spine numbers per 50 μm dendrite length” value in the test on hippocampal neurons (HGF 10 ng/ml) was 27.5 and 33 and 29.3; with c-Met receptor (neurons transfected with mRFP-β-actin alone), 20.6; with c-Met receptor (neurons transfected with mRFP-β-actin and shMet), 12.4.
